Experimental data reported in patent US10597388B2, “Pyridazinone herbicides” (FMC CORPORATION, priority 2014, dated 2020).

Tests used:
Test in all cases: Test C greenhouse herbicide test, pre- and postemergence
Type in all cases: in vivo
[1] = tested on: barnyardgrass (Echinochloa crus-galli)
Procedure, shortened: (§1)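 Each species was treated both before emergence, in a loam–sand soil mix, and after emergence, as 1- to 4-leaf seedlings in peat-based potting medium. Plants stayed in the greenhouse 13 to 15 d, then were scored from 0 (no effect) to 100 (complete control) relative to controls.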

[2] = tested on: blackgrass (Alopecurus myosuroides)
Procedure, shortened: as §1

corn (Zea mays) = tested on: corn (Zea mays)
Procedure, shortened: as §1

[3] = tested on: crabgrass, large (large crabgrass, Digitaria sanguinalis)
Procedure, shortened: as §1

[4] = tested on: foxtail, giant (giant foxtail, Setaria faberii)
Procedure, shortened: as §1

[5] = tested on: galium (catchweed bedstraw, Galium aparine)
Procedure, shortened: as §1

[6] = tested on: lambsquarters (Chenopodium album)
Procedure, shortened: as §1

[7] = tested on: nutsedge, yellow (yellow nutsedge, Cyperus esculentus)
Procedure, shortened: as §1

[8] = tested on: oilseed rape (Brassica napus)
Procedure, shortened: as §1

[9] = tested on: pigweed (Amaranthus retroflexus)
Procedure, shortened: as §1

[10] = tested on: ragweed (common ragweed, Ambrosia elatior)
Procedure, shortened: as §1

[11] = tested on: ryegrass, Italian (Italian ryegrass, Lolium multiflorum)
Procedure, shortened: as §1

soybean (Glycine max) = tested on: soybean (Glycine max)
Procedure, shortened: as §1

[12] = tested on: velvetleaf (Abutilon theophrasti)
Procedure, shortened: as §1

[13] = tested on: wheat (winter wheat, Triticum aestivum)
Procedure, shortened: as §1

[14] = Postemergence, 31 g ai/ha, 0 to 100 scale (0 no effect, 100 complete control)
[15] = Postemergence, 125 g ai/ha, scale 0 to 100, 0 is no effect, 100 is complete control
[16] = Postemergence, 250 g ai/ha, scale 0 to 100, 0 no effect, 100 complete control, 13 to 15 d
[17] = Preemergence, 31 g ai/ha, scale 0 to 100, 0 is no effect, 100 is complete control
[18] = Preemergence, 62 g ai/ha, scale 0 to 100, 0 is no effect, 100 is complete control
[19] = Preemergence, 125 g ai/ha, scale 0 to 100, 0 is no effect, 100 is complete control
[20] = Preemergence, 250 g ai/ha, scale 0 to 100, 0 no effect, 100 complete control
[21] = postemergence, 62 g ai/ha, scale 0 to 100, 0 no effect, 100 complete control

Cc1cc(C)c2ccccc2c1-c1c(O)c(C)nn(C)c1=O [Compound 21]
Barnyardgrass plant response rating [1, 14]: 35 | Plant response rating, Barnyardgrass [1, 15]: 75 | Plant response rating, Barnyardgrass [1, 16]: 90 | Plant response rating, Barnyardgrass [1, 17]: 80 | Plant response rating, Barnyardgrass [1, 18]: 100 | Plant response rating, Barnyardgrass [1, 19]: 100 | Barnyardgrass plant response rating [1, 20]: 100 | Barnyardgrass plant response rating [1, 21]: 45 | Blackgrass plant response rating [2, 14]: 80 | Plant response rating, Blackgrass [2, 15]: 90 | Plant response rating, Blackgrass [2, 16]: 95 | Plant response rating, Blackgrass [2, 17]: 90 | Plant response rating, Blackgrass [2, 18]: 90 | Plant response rating, Blackgrass [2, 19]: 90 | Blackgrass plant response rating [2, 20]: 90 | Blackgrass plant response rating [2, 21]: 90 | Corn plant response rating (corn (Zea mays); [14]): 5 | Plant response rating, Corn (corn (Zea mays); [15]): 20 | Plant response rating, Corn (corn (Zea mays); [16]): 20 | Plant response rating, Corn (corn (Zea mays); [17]): 0 | Plant response rating, Corn (corn (Zea mays); [18]): 15 | Plant response rating, Corn (corn (Zea mays); [19]): 40 | Corn plant response rating (corn (Zea mays); [20]): 65 | Corn plant response rating (corn (Zea mays); [21]): 65 | Crabgrass, Large plant response rating [3, 14]: 30 | Plant response rating, Crabgrass, Large [3, 15]: 40 | Plant response rating, Crabgrass, Large [3, 16]: 55 | Plant response rating, Crabgrass, Large [3, 17]: 35 | Plant response rating, Crabgrass, Large [3, 18]: 85 | Plant response rating, Crabgrass, Large [3, 19]: 85 | Crabgrass, Large plant response rating [3, 20]: 100 | Crabgrass, Large plant response rating [3, 21]: 35 | Foxtail, Giant plant response rating [4, 14]: 55 | Plant response rating, Foxtail, Giant [4, 15]: 90 | Plant response rating, Foxtail, Giant [4, 16]: 95 | Plant response rating, Foxtail, Giant [4, 17]: 100 | Plant response rating, Foxtail, Giant [4, 18]: 100 | Plant response rating, Foxtail, Giant [4, 19]: 100 | Foxtail, Giant plant response rating [4, 20]: 100 | Foxtail, Giant plant response rating [4, 21]: 80 | Galium plant response rating [5, 14]: 98 | Plant response rating, Galium [5, 15]: 100 | Plant response rating, Galium [5, 16]: 100 | Plant response rating, Galium [5, 17]: 98 | Plant response rating, Galium [5, 18]: 98 | Plant response rating, Galium [5, 19]: 98 | Galium plant response rating [5, 20]: 100 | Galium plant response rating [5, 21]: 100 | Lambsquarters plant response rating [6, 14]: 85 | Plant response rating, Lambsquarters [6, 15]: 95 | Plant response rating, Lambsquarters [6, 16]: 98 | Plant response rating, Lambsquarters [6, 17]: 90 | Plant response rating, Lambsquarters [6, 18]: 98 | Plant response rating, Lambsquarters [6, 19]: 98 | Lambsquarters plant response rating [6, 20]: 100 | Lambsquarters plant response rating [6, 21]: 90 | Nutsedge, Yellow plant response rating [7, 14]: 85 | Plant response rating, Nutsedge, Yellow [7, 15]: 90 | Plant response rating, Nutsedge, Yellow [7, 16]: 90 | Plant response rating, Nutsedge, Yellow [7, 17]: 75 | Plant response rating, Nutsedge, Yellow [7, 18]: 85 | Plant response rating, Nutsedge, Yellow [7, 19]: 85 | Nutsedge, Yellow plant response rating [7, 20]: 85 | Nutsedge, Yellow plant response rating [7, 21]: 90 | Oilseed Rape plant response rating [8, 14]: 65 | Plant response rating, Oilseed Rape [8, 15]: 100 | Plant response rating, Oilseed Rape [8, 16]: 100 | Plant response rating, Oilseed Rape [8, 17]: 90 | Plant response rating, Oilseed Rape [8, 18]: 100 | Plant response rating, Oilseed Rape [8, 19]: 100 | Oilseed Rape plant response rating [8, 20]: 100 | Oilseed Rape plant response rating [8, 21]: 80 | Pigweed plant response rating [9, 14]: 70 | Plant response rating, Pigweed [9, 15]: 95 | Plant response rating, Pigweed [9, 16]: 98 | Plant response rating, Pigweed [9, 17]: 100 | Plant response rating, Pigweed [9, 18]: 100 | Plant response rating, Pigweed [9, 19]: 100 | Pigweed plant response rating [9, 20]: 100 | Pigweed plant response rating [9, 21]: 95 | Ragweed plant response rating [10, 14]: 85 | Plant response rating, Ragweed [10, 15]: 90 | Plant response rating, Ragweed [10, 16]: 95 | Plant response rating, Ragweed [10, 17]: 95 | Plant response rating, Ragweed [10, 18]: 100 | Plant response rating, Ragweed [10, 19]: 100 | Ragweed plant response rating [10, 20]: 100 | Ragweed plant response rating [10, 21]: 90 | Ryegrass, Italian plant response rating [11, 14]: 90 | Plant response rating, Ryegrass, Italian [11, 15]: 95 | Plant response rating, Ryegrass, Italian [11, 16]: 95 | Plant response rating, Ryegrass, Italian [11, 17]: 90 | Plant response rating, Ryegrass, Italian [11, 18]: 90 | Plant response rating, Ryegrass, Italian [11, 19]: 90 | Ryegrass, Italian plant response rating [11, 20]: 95 | Ryegrass, Italian plant response rating [11, 21]: 95 | Soybean plant response rating (soybean (Glycine max); [14]): 0 | Plant response rating, Soybean (soybean (Glycine max); [15]): 10 | Plant response rating, Soybean (soybean (Glycine max); [16]): 20 | Plant response rating, Soybean (soybean (Glycine max); [18]): 0 | Plant response rating, Soybean (soybean (Glycine max); [19]): 0 | Soybean plant response rating (soybean (Glycine max); [20]): 20 | Soybean plant response rating (soybean (Glycine max); [21]): 0 | Velvetleaf plant response rating [12, 14]: 75 | Plant response rating, Velvetleaf [12, 15]: 85 | Plant response rating, Velvetleaf [12, 16]: 90 | Plant response rating, Velvetleaf [12, 18]: 90 | Plant response rating, Velvetleaf [12, 19]: 98 | Velvetleaf plant response rating [12, 20]: 98 | Velvetleaf plant response rating [12, 21]: 85 | Wheat plant response rating [13, 14]: 0 | Plant response rating, Wheat [13, 15]: 35 | Plant response rating, Wheat [13, 16]: 35 | Plant response rating, Wheat [13, 18]: 5 | Plant response rating, Wheat [13, 19]: 30 | Wheat plant response rating [13, 20]: 40 | Wheat plant response rating [13, 21]: 5
